Experimental findings from US20190144375A1, “NOVEL CARBOCYCLIC COMPOUNDS AS ROR GAMMA MODULATORS” (Glenmark Pharmaceuticals S.A., priority 2015, published 2019) are described below.

pIC50: −log10 of the molar value.

The target in this experiment is T1, GST-tagged ROR gamma ligand binding domain (LBD) (Homo sapiens, UniProt P51449).
T1 construct: purchased Invitrogen
T1 sequence (P51449 269-508 limits assumed): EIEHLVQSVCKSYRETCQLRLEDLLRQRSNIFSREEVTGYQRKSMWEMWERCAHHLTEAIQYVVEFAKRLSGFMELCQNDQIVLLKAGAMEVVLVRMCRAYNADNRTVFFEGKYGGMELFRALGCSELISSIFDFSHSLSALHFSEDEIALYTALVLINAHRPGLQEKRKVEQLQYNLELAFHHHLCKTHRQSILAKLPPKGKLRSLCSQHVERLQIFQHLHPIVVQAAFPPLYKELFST
The experiment in a line: TR-FRET assay for ROR gamma (LanthaScreen, Fluorescein-D22 co-activator peptide recruitment). Type of experiment: biochemical. As to conditions: for inhibition at 1 µM: 1 μM compound; for inhibition at 1 µM / inhibition at 10 µM: TR-FRET ratio 520/495; for inhibition at 10 µM: 10 μM compound; for pIC50: dose response curve, class symbols. The text has this:
The compounds described herein were screened for ROR gamma modulator activity using the TR-FRET assay (LanthaScreen™ available from Invitrogen of Carlsbad, Calif.) as described in JBC 2011, 286, 26: 22707-10; and Drug Metabolism and Disposition 2009, 37, 10: 2069-78.
The assay is based on the principle that binding of the agonist to the ROR gamma causes a conformational change around helix 12 in the ligand binding domain, resulting in higher affinity for the co-activator peptide. ROR gamma being constitutively active, the Fluorescein-D22 co-activator peptide used in the assay is recruited in the absence of a ligand. Binding of the co-activator peptide, causes an increase in the TR-FRET signal while binding of an antagonist decreases the recruitment of the co-activator peptide, causing a decrease in the TR-FRET signal compared to control with no compound. The assay was performed using a two-step procedure, pre-incubation step with the compound followed by the detection step on addition of the anti-GST tagged terbium (Tb) and fluorescein tagged fluorophores as the acceptor.
Test compounds or reference compounds such as T0901317 (Calbiochem) were dissolved in dimethylsulfoxide (DMSO) to prepare 10.0 mM stock solutions and diluted to the desired concentration. The final concentration of DMSO in the reaction was 4% (v/v). The assay mixture was prepared by mixing 10 nM of the GST-tagged ROR gamma ligand binding domain (LBD) in the assay buffer containing 25 mM HEPES, 100 mM NaCl, 5 mM DTT and 0.01% BSA with or without the desired concentration of the compound. The reaction was incubated at 22° C. for 1 hour. The pre-incubation step was terminated by addition of the detection mixture containing 300 nM Fluorescein-D22 co-activator peptide and 10 nM lantha screen Tb-anti GST antibody into the reaction mixture. After shaking for 5 minutes the reaction was further incubated for 1 hour at room temperature and read […] on an Infinite F500 reader as per the kit instructions (Invitrogen). The inhibition of test compound was calculated based on the TR-FRET ratio of 520/495. The activity was calculated as a percent of control reaction. IC50 values were calculated from dose response curve by nonlinear regression analysis using GraphPad Prism software.
Percentage inhibition at concentrations of 1.0 μM and 10.0 μM are given in the table along with IC50 (nM) details for selected examples.
For orientation: TR-FRET usually uses a lanthanide donor and a delayed reading to cut background.

Take `CCOC(=O)C(F)(F)c1ccc(CC(=O)Nc2ccc(C(=O)N(C)c3ccc(Cl)cc3)cc2)cc1` [Example 1, Ethyl 2-(4-(2-((4-((4-chlorophenyl)(methyl)carbamoyl)phenyl)amino)-2-oxoethyl)phenyl)-2,2-difluoroacetate]: the inhibition (usually the relative decrease from the control value, in per cent) at 1 µM amounted to 27.6% and the inhibition at 10 µM came out at 64.5%.
In the case of `CN(C(=O)c1ccc(NC(=O)Cc2ccc(C(F)(F)C(N)=O)cc2)cc1)c1ccc(Cl)cc1` [Example 2, 4-(2-(4-(2-amino-1,1-difluoro-2-oxoethyl)phenyl)acetamido)-N-(4-chlorophenyl)-N-methylbenzamide], the inhibition at 1 µM was 20.7% and the inhibition at 10 µM was 43.4%.
Regarding `CN(C(=O)c1ccc(NC(=O)Cc2ccc(C(F)(F)CO)cc2)cc1)c1ccc(Cl)cc1` [Example 3, N-(4-chlorophenyl)-4-(2-(4-(1,1-difluoro-2-hydroxyethyl)phenyl)acetamido)-N-methylbenzamide], the inhibition at 1 µM was 75%; the inhibition at 10 µM is 85.8%; the pIC50 (in general, −log10 of the IC50, conventionally taken in molar units) is less than 7.00.
In the case of `CCC(F)(F)c1ccc(CC(=O)Nc2ccc(C(=O)N(C)c3cc(Cl)ccc3Cl)cc2)cc1` [Example 4], the inhibition at 1 µM was determined as 88.5%, the inhibition at 10 µM worked out at 91.1% and the pIC50 is greater than 7.30.
For the molecule `CC(O)C(F)(F)c1ccc(CC(=O)Nc2ccc(C(=O)N(C)c3cc(Cl)ccc3Cl)cc2)cc1` (stereo not drawn) [Example 5, N-(2,5-Dichlorophenyl)-4-(2-(4-(1,1-difluoro-2-hydroxypropyl)phenyl)acetamido)-N-methylbenzamide], the inhibition at 1 µM turned out to be 87.6%, the inhibition at 10 µM is 94.3% and the pIC50 was greater than 7.30.
In the case of `CCC(F)(F)c1ccc(CC(=O)Nc2ccc(C(=O)N(C)c3ccccc3Cl)cc2)cc1` [Example 6], the inhibition at 1 µM stood at 90.9%, the inhibition at 10 µM was determined as 91.2% and the pIC50 was greater than 7.30.
Regarding `Cc1cc(C)cc(N(C)C(=O)c2ccc(NC(=O)Cc3ccc(C(F)(F)CO)cc3)cc2)c1` [Example 7], the inhibition at 1 µM amounted to 87.5%, the inhibition at 10 µM is 95.1% and the pIC50 is greater than 7.30.
In the case of `Cc1cc(C)cc(N(C)C(=O)c2ccc(NC(=O)Cc3ccc(C(F)(F)C(C)O)cc3)cc2)c1` (stereo not drawn) [Example 8], the inhibition at 1 µM amounted to 94.8%, the inhibition at 10 µM was found to be 96.5% and the pIC50 is greater than 7.30.
With `Cc1cc(C)cc(N(C)C(=O)c2ccc(NC(=O)Cc3ccc(C(F)(F)C(C)(C)O)cc3)cc2)c1` [Example 9, 4-(2-(4-(1,1-difluoro-2-hydroxy-2-methylpropyl)phenyl)acetamido)-N-(3,5-dimethylphenyl)-N-methylbenzamide], the inhibition at 1 µM was determined as 86.2%, the inhibition at 10 µM was determined as 97% and the pIC50 was less than 7.00.
Consider `COCC(F)(F)c1ccc(CC(=O)Nc2ccc(C(=O)N(C)c3cc(C)cc(C)c3)cc2)cc1` [Example 10], for which the inhibition at 1 µM was found to be 93.2%, the inhibition at 10 µM was 95.3% and the pIC50 is greater than 7.30.
For `CCC(F)(F)c1ccc(CC(=O)Nc2ccc(C(=O)N(C)c3cc(C)cc(C)c3)cc2)cc1` [Example 11], the inhibition at 1 µM stood at 90.1%, the inhibition at 10 µM was 92.9% and the pIC50 was greater than 7.30.
Regarding `Cc1cc(-c2ccccc2F)cc(N(C)C(=O)c2ccc(NC(=O)Cc3ccc(C(F)(F)C(C)O)cc3)cc2)c1` (stereo not drawn) [Example 12], the inhibition at 1 µM amounted to 89.4%, the inhibition at 10 µM is 93.7% and the pIC50 was 7.00 to 7.30.
Regarding `CCC(F)(F)c1ccc(CC(=O)Nc2ccc(C(=O)N(C)c3cc(C)cc(-c4ccccc4F)c3)cc2)cc1` [Example 13], the inhibition at 1 µM amounted to 87.5%, the inhibition at 10 µM stood at 90.6% and the negative logarithm of the IC50 (pIC50) is 7.00 to 7.30.
On to `CCC(F)(F)c1ccc(CC(=O)Nc2ccc(C(=O)N(CC(F)(F)F)c3cccc(Cl)c3)cc2)cc1` [Example 14], for which the inhibition at 1 µM was found to be 84%, the inhibition at 10 µM was determined as 87.6% and the negative logarithm of the IC50 (pIC50) was greater than 7.30.
For the molecule `CC(O)C(F)(F)c1ccc(CC(=O)Nc2ccc(C(=O)N(C)c3ccccc3Cl)cc2)cc1` (stereo not drawn) [Example 15], the inhibition at 1 µM stood at 85.5%, the inhibition at 10 µM was found to be 92.8% and the pIC50 is greater than 7.30.
As to `COCC(F)(F)c1ccc(CC(=O)Nc2ccc(C(=O)N(C)[C@H](C)c3ccc(Cl)cc3)cc2)cc1` [Example 16], the inhibition at 1 µM worked out at 84.5%, the inhibition at 10 µM is 93.7% and the pIC50 was less than 7.00.
Take `CCC(F)(F)c1ccc(CC(=O)Nc2ccc(C(=O)N(C)[C@H](C)c3ccc(Cl)cc3)cc2)cc1` [Example 17]: the inhibition at 1 µM turned out to be 87.1%, the inhibition at 10 µM is 90.8% and the pIC50 is greater than 7.30.
As for `CCC(F)(F)c1ccc(CC(=O)Nc2ccc(C(=O)N(C)[C@@H](c3ccc(Cl)cc3)C3CC3)cc2)cc1` [Example 18], the inhibition at 1 µM came out at 87.4%, the inhibition at 10 µM is 90% and the pIC50 was greater than 7.30.
The like results for `CC(O)C(F)(F)c1ccc(CC(=O)Nc2ccc(C(=O)N(C)[C@@H](c3ccc(Cl)cc3)C3CC3)cc2)cc1` (stereo partly drawn) [Example 19] were, in that order, 82.6%, 92.8% and 7.00 to 7.30.
With `CCC(F)(F)c1ccc(CC(=O)Nc2ccc(C(=O)N(C)[C@@H](C)c3ccc(Cl)cc3)cc2)cc1` [Example 20], the inhibition at 1 µM worked out at 61.5% and the inhibition at 10 µM came to 75%.
As to `CC(O)C(F)(F)c1ccc(CC(=O)Nc2ccc(C(=O)N(C)c3cc(Cl)cc(Cl)c3)cc2)cc1` (stereo not drawn) [Example 21, N-(3,5-dichlorophenyl)-4-(2-(4-(1,1-difluoro-2-hydroxypropyl)phenyl)acetamido)-N-methylbenzamide], the inhibition at 1 µM came to 82.2%, the inhibition at 10 µM is 87.9% and the pIC50 was greater than 7.30.
`Cc1ccc(N(C)C(=O)c2ccc(NC(=O)Cc3ccc(C(F)(F)C(C)O)cc3)cc2)c(Cl)c1` (stereo not drawn) [Example 23]: the inhibition at 1 µM is 88.8%, the inhibition at 10 µM turned out to be 93.2% and the pIC50 was greater than 7.30.
On to `Cc1cc(Cl)ccc1N(C)C(=O)c1ccc(NC(=O)Cc2ccc(C(F)(F)C(C)O)cc2)cc1` (stereo not drawn) [Example 24], for which the inhibition at 1 µM is 82.6%, the inhibition at 10 µM came out at 88.7% and the pIC50 was greater than 7.30.
Take `CC(O)C(F)(F)c1ccc(CC(=O)Nc2ccc(C(=O)N(C)c3ccc(Cl)cc3Cl)cc2)cc1` (stereo not drawn) [Example 25]: the inhibition at 1 µM was 82%, the inhibition at 10 µM stood at 90% and the pIC50 is greater than 7.30.
The like results for `CC(O)C(F)(F)c1ccc(CC(=O)Nc2ccc(C(=O)N(C)c3cccc(Cl)c3F)cc2)cc1` (stereo not drawn) [Example 26] were, in that order, 86.4%, 93.2% and greater than 7.30.
Consider `Cc1ccc(Cl)c(N(C)C(=O)c2ccc(NC(=O)Cc3ccc(C(F)(F)C(C)O)cc3)cc2)c1` (stereo not drawn) [Example 27], for which the inhibition at 1 µM amounted to 90.1%, the inhibition at 10 µM worked out at 92% and the pIC50 was greater than 7.30.
Take `Cc1ccc(F)c(N(C)C(=O)c2ccc(NC(=O)Cc3ccc(C(F)(F)C(C)O)cc3)cc2)c1` (stereo not drawn) [Example 28]: the inhibition at 1 µM worked out at 90.5%, the inhibition at 10 µM was determined as 93.9% and the pIC50 is greater than 7.30.
Consider `Cc1ccc(N(C)C(=O)c2ccc(NC(=O)Cc3ccc(C(F)(F)[C@@H](C)O)cc3)cc2)c(Cl)c1` [Example 29, (R)—N-(2-Chloro-4-methylphenyl)-4-(2-(4-(1,1-difluoro-2-hydroxypropyl)phenyl)acetamido)-N-methylbenzamide], for which the inhibition at 1 µM amounted to 80.7%, the inhibition at 10 µM came to 87.1% and the negative logarithm of the IC50 (pIC50) is greater than 7.30.
The like results for `Cc1ccc(N(C)C(=O)c2ccc(NC(=O)Cc3ccc(C(F)(F)[C@H](C)O)cc3)cc2)c(Cl)c1` [Example 30, (S)—N-(2-Chloro-4-methylphenyl)-4-(2-(4-(1,1-difluoro-2-hydroxypropyl)phenyl)acetamido)-N-methylbenzamide] were, in that order, 85.5%, 88.7% and greater than 7.30.
